Data published in patent publication EP1746087A1, “Derivates of 3-indolylmethylene having cytostatic properties” (Universitaet Regensburg, priority 2005, dated 2007).
Read-outs that look alike come from different tables or passages of the source.

Assays:
Type in all cases: cell-based, menschlich
[1] = test system: MDA-MB-231-Mammacarcinomzellen; experiment: Flow-cytometric analysis of cell cycle distribution
Excerpt: (§1) Die cytostatische Wirkung der erfindungsgemäßen Verbindungen wurde an zwei verschiedenen menschlichen Mammacarcinomzellinien in vitro bestimmt (M. Goldbrunner et al., J.Med.Chem. 1997,40,3525). Es handelt sich dabei um die hormonunabhängige MDA-MB-231-Zellinie und die estrogensensitive MCF-7-Linie. Die MDA-MB-231-Zellen wurden auch für die durchflusszytometrischen Analysen zur Zellzyklusverteilung herangezogen (M.J.J. Jaroszeski und R. Heller, Flow Cytometry Protocols, Humana Press, 1998, Totowa New Jersey). Besonders überraschend war, dass diese synthetischen Verbindungen häufig bereits im Konzentrationsbereich von 10 bis 100 nanomolar das Wachstum von menschlichen Tumorzellen stark hemmen, obwohl sie nur ein relativ niedriges Molekulargewicht aufweisen (MG ~ 320 - 500) (Tabelle 2 und 3, Abb. 2). Potente Therapeutika, die ebenfalls in den Zellzyklus eingreifen, besitzen Molekulargewichte im Bereich von 825 (Vincristin als Base) und 850 (Paclitaxel).

[2] = test system: MCF-7-Mammacarcinomzellen; experiment: Growth inhibition of MCF-7 mammary carcinoma cells in vitro (cytostatic effect); details: MCF-7 cells, read-out: IC50 Hemmwirkung auf das Wachstum
Excerpt: as §1

[3] = test system: MDA-MB-231-Brustkrebszellen; experiment: Growth inhibition of MDA-MB-231 breast cancer cells in vitro (cytostatic effect); details: MDA-MB-231 cells, read-out: IC50 Hemmwirkung auf das Wachstum
Excerpt: as §1

SMILES	Debris % ([1]; Konz. 0.05 µM) [%]	G1/G0 % ([1]; Konz. 0.05 µM) [%]	G2/M % ([1]; Konz. 0.05 µM) [%]	S % ([1]; Konz. 0.05 µM) [%]	Debris % ([1]; Konz. 0.1 µM) [%]	G1/G0 % ([1]; Konz. 0.1 µM) [%]	G2/M % ([1]; Konz. 0.1 µM) [%]	S % ([1]; Konz. 0.1 µM) [%]	Debris % ([1]; Konz. 0.5 µM) [%]	G1/G0 % ([1]; Konz. 0.5 µM) [%]	G2/M % ([1]; Konz. 0.5 µM) [%]	S % ([1]; Konz. 0.5 µM) [%]	Debris % ([1]; Konz. 1.0 µM) [%]	G1/G0 % ([1]; Konz. 1.0 µM) [%]	G2/M % ([1]; Konz. 1.0 µM) [%]	S % ([1]; Konz. 1.0 µM) [%]	IC50 ([2]; Homo sapiens, MCF7) [nM]	IC50 ([3]; Homo sapiens) [nM]	also measured
CCCCc1ccc2[nH]c(-c3ccc(OC)cc3)c(C=NO)c2c1 [Verbindung 20, 5-n-Butyl-2-(4-methoxyphenyl)-indol-3-carbaldehyd-oxim]	7.3	50.0	30.0	13.2	12.2	38.6	34.9	14.4	9.6	9.0	64.6	14.4	13.8	9.6	54.8	21.2	210	40	–
COc1ccc(-c2[nH]c3ccc(C)cc3c2C=C(C#N)C#N)cc1 [Verbindung 1, [2-(4-Methoxyphenyl)-5-methyl-indol-3-yl]-methylenpropandinitril]	–	–	–	–	–	–	–	–	7.8	41.0	32.0	19.2	16.4	16.9	45.4	21.3	200	280	Debris % ([1]; Konz. 5.0 µM): 6.4%; G1/G0 % ([1]; Konz. 5.0 µM): 9.8%; G2/M % ([1]; Konz. 5.0 µM): 57.7%; S % ([1]; Konz. 5.0 µM): 26.1%
CCCCc1ccc2[nH]c(-c3ccc(C(F)(F)F)cc3)c(C=NNC(=O)c3cccnc3)c2c1 [Verbindung 25, 5-Butyl-2-[4-(trifluormethyl)-phenyl]-indol-3-carbaldehyd-nicotinylhydrazone]	2.7	51.2	24.1	23.1	2.6	48.8	24.9	24.4	6.9	11.4	75.2	11.0	–	–	–	–	–	–	Debris % ([1]; Konz. 0.01 µM): 2.3%; G1/G0 % ([1]; Konz. 0.01 µM): 50.8%; G2/M % ([1]; Konz. 0.01 µM): 26.3%; S % ([1]; Konz. 0.01 µM): 21.7%; IC50 [2]: 260 nM; IC50 [3]: 97 nM
CCCCCCc1ccc2[nH]c(-c3ccc(OC)cc3)c(C=C(C#N)C#N)c2c1 [Verbindung 9, [5-n-Hexyl-2-(4-methoxyphenyl)-indol-3-yl]-methylenpropandinitril]	–	–	–	–	6.1	46.2	22.4	25.3	22.6	7.4	53.9	16.1	15.9	7.1	57.3	19.7	25	46	–
